Measurements taken from ChEMBL document CHEMBL1201862, “PubChem BioAssay data set” (2004).
Active and inactive are the calls of the source.

How the values were obtained:
Protein Tat = target: T1, Protein Tat (Human immunodeficiency virus type 1 group M subtype B (isolate HXB2)(HIV-1), UniProt P04608); type: functional;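 also: tat binding to TAR RNA read out by fluorescence polarization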
T1 sequence (P04608 whole entry): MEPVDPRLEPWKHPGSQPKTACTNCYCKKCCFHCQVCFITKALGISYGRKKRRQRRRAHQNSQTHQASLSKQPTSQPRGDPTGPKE

[1] = THP-1 cell cytotoxicity, dose response, cytotoxicity control for Vif-APOBEC3G degradation inhibitor project, THP-1 cells (AID 1117359); type: functional; conditions: Human immunodeficiency virus 1, THP-1
Estrogen receptor beta = Estrogen receptor beta (Homo sapiens, UniProt Q92731); experiment: ERβ–SRC-3 coactivator interaction inhibitors, confirmation, orthogonal assay, biochemical, ELISA, streptavidin-HRP readout (AID 1060)
Sequence of Estrogen receptor beta (Q92731 whole entry): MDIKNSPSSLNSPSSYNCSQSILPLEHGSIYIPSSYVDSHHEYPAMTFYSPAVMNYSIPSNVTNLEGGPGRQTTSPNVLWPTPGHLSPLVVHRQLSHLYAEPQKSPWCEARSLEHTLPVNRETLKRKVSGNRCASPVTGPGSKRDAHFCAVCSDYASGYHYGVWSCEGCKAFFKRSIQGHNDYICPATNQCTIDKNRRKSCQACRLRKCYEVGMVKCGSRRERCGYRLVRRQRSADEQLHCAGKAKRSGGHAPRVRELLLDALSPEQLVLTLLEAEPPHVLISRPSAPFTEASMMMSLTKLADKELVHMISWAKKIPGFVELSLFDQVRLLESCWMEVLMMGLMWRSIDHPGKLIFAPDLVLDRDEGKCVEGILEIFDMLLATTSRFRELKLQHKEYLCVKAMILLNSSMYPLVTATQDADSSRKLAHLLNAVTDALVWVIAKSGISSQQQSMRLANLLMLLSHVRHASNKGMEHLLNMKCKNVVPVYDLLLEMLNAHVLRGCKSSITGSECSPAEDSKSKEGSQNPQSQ

Insulin-degrading enzyme [2] = target: T2, Insulin-degrading enzyme (Homo sapiens, UniProt P14735); experiment: activators of endogenous IDE in HEK cells, dose response, cell-based, fluorescence polarization (AID 588439); type: functional
T2 sequence (P14735 whole entry): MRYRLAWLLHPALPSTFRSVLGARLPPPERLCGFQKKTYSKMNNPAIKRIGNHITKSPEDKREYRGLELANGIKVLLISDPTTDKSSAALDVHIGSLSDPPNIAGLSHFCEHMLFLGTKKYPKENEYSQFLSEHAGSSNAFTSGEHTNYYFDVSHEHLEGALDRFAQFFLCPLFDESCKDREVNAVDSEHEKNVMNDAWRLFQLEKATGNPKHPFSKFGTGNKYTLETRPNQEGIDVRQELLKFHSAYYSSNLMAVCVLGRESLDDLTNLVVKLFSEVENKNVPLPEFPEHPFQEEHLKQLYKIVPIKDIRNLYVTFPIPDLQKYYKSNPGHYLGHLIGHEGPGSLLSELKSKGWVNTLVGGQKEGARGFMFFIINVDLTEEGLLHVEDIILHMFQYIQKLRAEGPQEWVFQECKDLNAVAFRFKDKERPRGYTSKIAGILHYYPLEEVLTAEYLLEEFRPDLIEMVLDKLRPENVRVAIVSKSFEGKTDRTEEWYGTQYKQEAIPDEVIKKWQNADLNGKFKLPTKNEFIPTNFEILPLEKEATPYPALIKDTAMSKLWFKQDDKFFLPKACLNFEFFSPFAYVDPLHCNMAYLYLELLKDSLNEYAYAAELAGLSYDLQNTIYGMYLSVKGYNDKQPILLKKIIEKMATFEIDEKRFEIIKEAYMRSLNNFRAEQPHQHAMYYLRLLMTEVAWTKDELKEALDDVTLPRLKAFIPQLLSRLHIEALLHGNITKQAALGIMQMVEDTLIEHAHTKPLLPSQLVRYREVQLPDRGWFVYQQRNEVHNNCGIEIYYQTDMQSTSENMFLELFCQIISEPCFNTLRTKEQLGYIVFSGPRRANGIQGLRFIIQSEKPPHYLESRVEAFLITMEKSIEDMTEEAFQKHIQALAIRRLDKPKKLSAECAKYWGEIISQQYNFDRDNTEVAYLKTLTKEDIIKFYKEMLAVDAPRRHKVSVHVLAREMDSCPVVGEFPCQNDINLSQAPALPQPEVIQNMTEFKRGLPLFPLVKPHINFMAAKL

HEK293 [3] = experiment: HEK cell cytotoxicity by LDH release, dose response, cytotoxicity control for IDE activator project, fluorescence, HEK cells (AID 588440); type: functional, cell-based; conditions: Homo sapiens;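 also: cytotoxicity by LDH release measuring loss of membrane integrity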
Insulin-degrading enzyme [4] = target: T2, Insulin-degrading enzyme; experiment: activators of recombinant IDE enzyme, dose response, counter-screen for IDE activator project, biochemical, fluorescence polarization (AID 588681)
HEK293 [5] = experiment: optical interference in Abeta FP readout, dose response, artefact control for IDE activator project, biochemical, fluorescence polarization (AID 588442); type: functional, cell-based; conditions: Homo sapiens
[6] = target: Nuclear receptor subfamily 5 group A member 2 (Homo sapiens, UniProt O00482); type: functional, cell-based;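 also: HEK293T cells transfected with LRH-1 and a StAR promoter luciferase reporter; potency for inhibitors that lower LRH-1 driven reporter light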
Sequence of Nuclear receptor subfamily 5 group A member 2 (O00482 whole entry): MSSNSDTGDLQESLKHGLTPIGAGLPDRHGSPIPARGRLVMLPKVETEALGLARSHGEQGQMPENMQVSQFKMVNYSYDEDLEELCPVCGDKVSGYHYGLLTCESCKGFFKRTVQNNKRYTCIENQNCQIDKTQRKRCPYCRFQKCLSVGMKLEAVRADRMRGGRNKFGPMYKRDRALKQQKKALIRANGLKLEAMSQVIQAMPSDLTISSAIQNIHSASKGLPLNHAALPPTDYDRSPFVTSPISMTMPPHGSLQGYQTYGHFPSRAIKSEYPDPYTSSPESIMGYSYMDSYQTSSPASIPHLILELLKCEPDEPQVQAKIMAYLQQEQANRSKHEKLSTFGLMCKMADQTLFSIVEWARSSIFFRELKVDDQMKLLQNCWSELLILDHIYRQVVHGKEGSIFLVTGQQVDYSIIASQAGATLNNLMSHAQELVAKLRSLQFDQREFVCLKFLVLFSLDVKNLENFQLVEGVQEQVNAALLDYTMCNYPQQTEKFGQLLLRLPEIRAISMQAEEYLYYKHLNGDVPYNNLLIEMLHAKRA

[7] = StAR promoter reporter inhibition counter-screen, dose response, counter-screen for LRH-1 inverse agonist project, cell-based, luminescence, luciferase reporter (AID 651969); type: functional
Steroidogenic factor 1 = Steroidogenic factor 1 (Homo sapiens, UniProt Q13285); experiment: Counterscreen for inverse agonists of the liver receptor homolog-1 (LRH-1; NR5A2): Luminescence-based cell-based high throughput dose response assay to identify inverse agonists of the Steroidogenic Factor 1 Nuclear Receptor (SF1; NR5A1).; type: functional
Sequence of Steroidogenic factor 1 (Q13285 whole entry): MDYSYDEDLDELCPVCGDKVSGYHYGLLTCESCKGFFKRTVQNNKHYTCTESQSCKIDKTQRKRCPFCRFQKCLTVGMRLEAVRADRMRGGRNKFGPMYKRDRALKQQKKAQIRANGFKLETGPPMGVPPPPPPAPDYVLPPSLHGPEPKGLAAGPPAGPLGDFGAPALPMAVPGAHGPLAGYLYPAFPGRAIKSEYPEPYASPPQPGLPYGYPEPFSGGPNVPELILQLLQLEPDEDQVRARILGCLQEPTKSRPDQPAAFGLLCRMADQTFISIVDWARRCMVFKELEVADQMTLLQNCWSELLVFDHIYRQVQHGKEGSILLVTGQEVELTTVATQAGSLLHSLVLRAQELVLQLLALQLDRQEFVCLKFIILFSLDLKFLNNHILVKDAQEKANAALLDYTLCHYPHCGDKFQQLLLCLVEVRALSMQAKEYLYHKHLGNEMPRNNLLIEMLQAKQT

[8] = HepG2 cell cytotoxicity, dose response, cytotoxicity control for Shn3 inhibitor project, CellTiter-Glo, cherry-picked (AID 624134); type: functional, cell-based
[9] = Fluorescence-based cell-based high throughput dose response assay for inhibitors of the interaction of nucleotide-binding oligomerization domain containing 2 (NOD2) and the receptor-interacting serine-threonine kinase 2 (RIPK2).; type: functional; conditions: Homo sapiens
[10] = Shn3 3'UTR reporter inhibitors, dose response, cell-based, Clone20 osteoblasts, firefly luciferase, cherry-picked (AID 624132); type: functional;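 also: firefly luciferase luminescence from reporter carrying the Shn3 3'UTR in osteoblasts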
[11] = control 3'UTR Renilla luciferase suppression, dose response, counter-screen for Shn3 inhibitor project, cell-based, Clone20-Shn3RL, cherry-picked (AID 624133); type: functional
Beta Lactamase = Beta Lactamase (Pseudomonas aeruginosa, UniProt Q932Y6); experiment: beta-lactamase reporter inhibitor potency, dose response, artefact control for NOD2-RIPK2 interaction inhibitor project, BLA reporter cells, FRET fluorescence (AID 651552); type: functional, cell-based
Sequence of Beta Lactamase (Q932Y6 whole entry): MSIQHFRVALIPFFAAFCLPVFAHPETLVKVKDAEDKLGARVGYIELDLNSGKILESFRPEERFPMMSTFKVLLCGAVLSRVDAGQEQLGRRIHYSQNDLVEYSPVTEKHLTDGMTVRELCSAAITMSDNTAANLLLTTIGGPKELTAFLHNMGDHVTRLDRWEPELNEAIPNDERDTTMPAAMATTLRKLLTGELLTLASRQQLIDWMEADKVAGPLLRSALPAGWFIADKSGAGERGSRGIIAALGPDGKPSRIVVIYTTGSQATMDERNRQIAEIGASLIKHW

COc1cc(C2Nc3cccc4cccc(c34)N2)cc(OC)c1O
IC50 (Protein Tat): 13.1 µM (inconclusive) | CC50 [1]: 2.1 µM (active) | IC50 (Estrogen receptor beta): 5.04 µM (not active) | EC50 (Insulin-degrading enzyme [2]): > 54.7 µM (inactive) | IC50 (HEK293 [3]): > 89.2 µM (inactive) | EC50 (Insulin-degrading enzyme [4]): > 54.7 µM (inactive) | EC50 (HEK293 [5]): > 55.9 µM (inactive)

Cc1nc2ccccc2c(=O)n1-c1ccc(C(=O)O)cc1
EC50 (Insulin-degrading enzyme [2]): > 54.7 µM (inactive) | IC50 (HEK293 [3]): > 89.2 µM (inactive) | EC50 (Insulin-degrading enzyme [4]): > 54.7 µM (inactive) | EC50 (HEK293 [5]): > 55.9 µM (inactive)

COc1ccc(NC(=O)COC(=O)Cc2c[nH]c3ccccc23)cc1Cl
IC50 [6]: 25.4 µM (inactive) | IC50 [7]: 35.9 µM (inactive) | IC50 (Steroidogenic factor 1): 17.6 µM (inactive)

C=C1C(=O)[C@]23C[C@H]1CCC2[C@@]1(C)C(C[C@@H]3O)[C@](C)(C(=O)OC)CC[C@@H]1OC(C)=O (some centres undefined)
AC50 [8]: 7.22 µM (active) | IC50 [9]: 0.917 µM (active) | AC50 [10]: 2.14 µM (active) | AC50 [11]: 3.51 µM (active) | IC50 (Beta Lactamase): 18 µM (inactive)
